Experimental data: PubChem BioAssay AID248 (DTP/NCI, 2004)
Several values for one entry are separate records, joined by “and”; a condition that tells them apart may be missing. Equal values may be shown once. Inconclusive results and toxic doses are left out.

Test system: L1210 leukemia ip in BDF1 mice, survival T/C
Test: NCI In Vivo Anticancer Drug Screen. Data for tumor model L1210 Leukemia (intraperitoneal) in B6D2F1 (BDF1) mice
Settings: endpoint: mean survival time, higher = longer survival
Outline: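 Each compound was tested against a transplantable tumor grown in mice. The endpoint was survival, with treated animals benchmarked against vehicle controls as a simple ratio.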

[1] = dose: 50.0 mg/kg/injection, schedule: Q01DX001 (ip), vehicle: carboxymethylcellulose (CMC)
[2] = dose: 100.0 mg/kg/injection, schedule: Q01DX001 (ip), vehicle: carboxymethylcellulose (CMC)
[3] = dose: 200.0 mg/kg/injection, schedule: Q01DX001 (ip), vehicle: carboxymethylcellulose (CMC)
[4] = dose: 400.0 mg/kg/injection, schedule: Q01DX001 (ip), vehicle: carboxymethylcellulose (CMC)

CNC(=O)OCCOC(=O)c1ccc(OC(=O)NC)cc1
T/C (dose: 25.0 mg/kg/injection, schedule: Q01DX001 (ip), vehicle: carboxymethylcellulose (CMC)): 109 % of control | T/C (dose: 25.0 mg/kg/injection, schedule: Q01DX001 (ip), vehicle: other): 96 % of control | T/C (dose: 25.0 mg/kg/injection, schedule: Q01DX001 (ip), vehicle: saline): 95 % of control | T/C (dose: 45.0 mg/kg/injection, schedule: Q01DX001 (ip), vehicle: saline): 91 % of control | T/C [1]: 93 % of control | T/C (dose: 50.0 mg/kg/injection, schedule: Q01DX001 (ip), vehicle: other): 100 % of control | T/C (dose: 50.0 mg/kg/injection, schedule: Q01DX001 (ip), vehicle: saline): 96 % of control | T/C (dose: 67.0 mg/kg/injection, schedule: Q01DX001 (ip), vehicle: saline): 100 % of control | T/C [2]: 103 % of control and 92 % of control | T/C (dose: 100.0 mg/kg/injection, schedule: Q01DX001 (ip), vehicle: other): 94 % of control | T/C (dose: 100.0 mg/kg/injection, schedule: Q01DX001 (ip), vehicle: saline): 95 % of control and 101 % of control and 202 % of control | T/C (dose: 150.0 mg/kg/injection, schedule: Q01DX001 (ip), vehicle: saline): 95 % of control | T/C [3]: 97 % of control and 101 % of control | T/C (dose: 200.0 mg/kg/injection, schedule: Q01DX001 (ip), vehicle: other): 96 % of control | T/C (dose: 200.0 mg/kg/injection, schedule: Q01DX001 (ip), vehicle: saline): 88 % of control and 90 % of control | T/C [4]: 97 % of control | T/C (dose: 400.0 mg/kg/injection, schedule: Q01DX001 (ip), vehicle: saline): 93 % of control and 90 % of control

O=[N+]([O-])/C=C/c1ccccc1Cl
T/C (dose: 5.0 mg/kg/injection, schedule: Q01DX009 (ip), vehicle: other): 98 % of control | T/C (dose: 6.25 mg/kg/injection, schedule: Q01DX009 (ip), vehicle: saline with Tween-80): 100 % of control | T/C (dose: 10.0 mg/kg/injection, schedule: Q01DX009 (ip), vehicle: other): 110 % of control | T/C (dose: 12.5 mg/kg/injection, schedule: Q01DX009 (ip), vehicle: saline with Tween-80): 95 % of control | T/C (dose: 15.0 mg/kg/injection, schedule: Q04DX003 (ip), vehicle: other): 114 % of control | T/C (dose: 20.0 mg/kg/injection, schedule: Q01DX009 (ip), vehicle: other): 100 % of control | T/C (dose: 25.0 mg/kg/injection, schedule: Q01DX009 (ip), vehicle: saline with Tween-80): 101 % of control | T/C (dose: 30.0 mg/kg/injection, schedule: Q04DX003 (ip), vehicle: other): 104 % of control | T/C (dose: 37.5 mg/kg/injection, schedule: Q01DX009 (sc), vehicle: olive oil, sesame oil, peanut oil): 94 % of control | T/C (dose: 37.5 mg/kg/injection, schedule: Q04DX003 (ip), vehicle: Klucel (hydroxypropylcellulose) (HPC)): 101 % of control | T/C (dose: 50.0 mg/kg/injection, schedule: Q01DX009 (ip), vehicle: saline with Tween-80): 96 % of control | T/C (dose: 60.0 mg/kg/injection, schedule: Q04DX003 (ip), vehicle: other): 108 % of control | T/C (dose: 75.0 mg/kg/injection, schedule: Q01DX001 (ip), vehicle: saline): 92 % of control | T/C (dose: 75.0 mg/kg/injection, schedule: Q01DX009 (sc), vehicle: olive oil, sesame oil, peanut oil): 94 % of control | T/C (dose: 75.0 mg/kg/injection, schedule: Q04DX003 (ip), vehicle: Klucel (hydroxypropylcellulose) (HPC)): 90 % of control | T/C (dose: 150.0 mg/kg/injection, schedule: Q04DX003 (ip), vehicle: Klucel (hydroxypropylcellulose) (HPC)): 90 % of control

O=c1[nH]c2cc(Cl)cc([N+](=O)[O-])c2c2c(Cl)cc(Cl)cc12
T/C (dose: 100.0 mg/kg/injection, schedule: Q01DX009 (ip), vehicle: Klucel (hydroxypropylcellulose) (HPC)): 100 % of control | T/C (dose: 100.0 mg/kg/injection, schedule: Q04DX003 (ip), vehicle: Klucel (hydroxypropylcellulose) (HPC)): 95 % of control | T/C (dose: 200.0 mg/kg/injection, schedule: Q01DX009 (ip), vehicle: Klucel (hydroxypropylcellulose) (HPC)): 101 % of control | T/C (dose: 200.0 mg/kg/injection, schedule: Q04DX003 (ip), vehicle: Klucel (hydroxypropylcellulose) (HPC)): 97 % of control | T/C (dose: 400.0 mg/kg/injection, schedule: Q01DX009 (ip), vehicle: Klucel (hydroxypropylcellulose) (HPC)): 104 % of control | T/C (dose: 400.0 mg/kg/injection, schedule: Q04DX003 (ip), vehicle: Klucel (hydroxypropylcellulose) (HPC)): 92 % of control

NC(=O)SCC(N)C(=O)O (stereo unspecified)
T/C [1]: 101 % of control | T/C [2]: 90 % of control | T/C (dose: 100.0 mg/kg/injection, schedule: Q04DX003 (ip), vehicle: saline): 104 % of control | T/C [3]: 95 % of control | T/C (dose: 200.0 mg/kg/injection, schedule: Q04DX003 (ip), vehicle: saline): 110 % of control | T/C [4]: 101 % of control | T/C (dose: 400.0 mg/kg/injection, schedule: Q04DX003 (ip), vehicle: saline): 116 % of control
